According to patent EP4644383A1 (Jiangsu Yahong Meditech Co., Ltd., priority 2022, dated 2024):
Read-outs that look alike come from different tables or passages of the source.

Experiments:
Format in all cases: biochemical
FGFR3 = target: T1, FGFR3 (Homo sapiens, UniProt P22607); assay: FGFR3 kinase activity inhibition assay (LanthaScreen TR-FRET); settings: for Selectivity (X) FGFR1/FGFR3: ratio of IC50 FGFR1/FGFR3, selectivity towards FGFR3; for Selectivity (X) FGFR2/FGFR3: ratio of IC50 FGFR2/FGFR3, selectivity towards FGFR3; for Selectivity (X) FGFR4/FGFR3: ratio of IC50 FGFR4/FGFR3, selectivity towards FGFR3
T1 construct: FGFR3's cytoplasmic domain [436-806 (terminal) amino acids]; purchased Carna 08-135
T1 sequence (P22607 436-806): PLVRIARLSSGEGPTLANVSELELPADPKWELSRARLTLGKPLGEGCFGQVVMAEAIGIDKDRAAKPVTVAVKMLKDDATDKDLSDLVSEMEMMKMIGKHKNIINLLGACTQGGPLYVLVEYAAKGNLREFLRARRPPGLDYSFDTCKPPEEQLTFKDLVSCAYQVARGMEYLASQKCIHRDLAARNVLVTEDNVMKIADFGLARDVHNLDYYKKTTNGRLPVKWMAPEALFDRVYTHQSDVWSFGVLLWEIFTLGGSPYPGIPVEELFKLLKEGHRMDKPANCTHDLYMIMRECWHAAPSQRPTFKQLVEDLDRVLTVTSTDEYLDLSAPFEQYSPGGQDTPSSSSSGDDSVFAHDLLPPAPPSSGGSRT
Procedure, shortened: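 Read-out is TR-FRET, with the 520 nm/495 nm emission ratio normalised to DMSO (max) and enzyme-free (min) controls. Enzyme was the FGFR3 cytoplasmic domain, residues 436-806. EDTA (10 mM) stopped the reaction, followed by 60 min at 22 °C before reading.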

FGFR4 = target: T2, FGFR4 (Homo sapiens, UniProt P22455); assay: FGFR4 kinase activity inhibition assay (LanthaScreen TR-FRET); settings: FGFR4 kinase, TR-FRET; read-out: IC50 (nM) FGFR4
T2 construct: FGFR4's cytoplasmic domain [460-802 (terminal) amino acids]; purchased Carna 08-136
T2 sequence (P22455 460-802): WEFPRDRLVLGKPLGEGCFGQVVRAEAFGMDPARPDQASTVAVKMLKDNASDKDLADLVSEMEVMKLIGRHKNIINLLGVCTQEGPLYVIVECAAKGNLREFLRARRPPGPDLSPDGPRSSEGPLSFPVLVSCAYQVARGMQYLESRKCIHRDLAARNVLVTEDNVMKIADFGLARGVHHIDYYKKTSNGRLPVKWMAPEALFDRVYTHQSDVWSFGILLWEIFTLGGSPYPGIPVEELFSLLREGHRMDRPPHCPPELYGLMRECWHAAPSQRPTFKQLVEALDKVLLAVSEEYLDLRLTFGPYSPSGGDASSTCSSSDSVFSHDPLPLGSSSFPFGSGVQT
Description: (§1) FGFR1 kinase activity was measured using Invitrogen LanthaScreen™ assay technology, which utilized fluorescently-labeled peptides and terbium-labeled antibodies to directly measure an amount of the phosphorylated substrate through time-resolved fluorescence energy transfer (TR-FRET). • ① The test compounds were diluted: starting from a concentration of 1 µM, with a buffer solution in a three-fold serial dilution, the buffer solution being composed of 50 mM HEPES, 10 mM MgCl2, 0.01% TritonX-100, 0.01% BSA, 4 mM DTT (pH 7.5), and 1% DMSO; • ② 0.01 nM recombinant human GST fusion protein FGFR1's cytoplasmic domain [398-822 (terminal) amino acids] (Carna: 08-133) was formulated into a 2 × solution, mixed well with the test compounds, and incubated at 23°C for 10 minutes; • ③ 28 nM Fluorescein-Poly GT peptide substrate (Life Technologies: PV3611) and 28 µM ATP were formulated into a 2 × solution, mixed well with the test compounds and enzyme in ②, and incubated at 23°C for 30 minutes; • ④ 10 µL of 2nM Tb-PY20 antibody (Life Technologies: PV3552) and 10 mM EDTA were added to quench the kinase reaction, and incubated at 22°C for 60 minutes. • ⑤ The reaction was measured using a PerkinElmer EnVision multimode plate reader through TR-FRET dual wavelength detection. • 1. The RFU values were copied from the Envision program. • 2. The ratio of RFU 520nm/RFU 495nm was calculated. • 3. The value of the ratio was converted to a percentage inhibition value. % Inhibition = (max-data)/(max-min) × 100 [formula]
(§2) "Min" represents the ratio of the control without enzyme, "max" represents the ratio of the DMSO control, and "data" represents the ratio of the compounds in wells with different concentrations.
(§3) "Top" refers to the maximum response, "Bottom" refers to the minimum response, and "HillSlope" refers to the slope of the curve.
(§4) According to the same method as that in the FGFR1 kinase activity inhibition assay, the inhibitory activities against FGFR2, FGFR3 and FGFR4 were tested using FGFR2's cytoplasmic domain [399-821 (terminal) amino acids] (Carna: 08-134), FGFR3's cytoplasmic domain [436-806 (terminal) amino acids] (Carna: 08-135) and FGFR4's cytoplasmic domain [460-802 (terminal) amino acids] (Carna: 08-136), respectively. Table 1 reports the kinase activity inhibition results and selectivity towards FGFR3 of each compound.

FGFR1 = target: T3, FGFR1 (Homo sapiens, UniProt P11362); assay: FGFR1 kinase activity inhibition assay (LanthaScreen TR-FRET)
T3 construct: cytoplasmic domain [398-822 (terminal) amino acids]; purchased Carna 08-133
T3 sequence (P11362 398-822): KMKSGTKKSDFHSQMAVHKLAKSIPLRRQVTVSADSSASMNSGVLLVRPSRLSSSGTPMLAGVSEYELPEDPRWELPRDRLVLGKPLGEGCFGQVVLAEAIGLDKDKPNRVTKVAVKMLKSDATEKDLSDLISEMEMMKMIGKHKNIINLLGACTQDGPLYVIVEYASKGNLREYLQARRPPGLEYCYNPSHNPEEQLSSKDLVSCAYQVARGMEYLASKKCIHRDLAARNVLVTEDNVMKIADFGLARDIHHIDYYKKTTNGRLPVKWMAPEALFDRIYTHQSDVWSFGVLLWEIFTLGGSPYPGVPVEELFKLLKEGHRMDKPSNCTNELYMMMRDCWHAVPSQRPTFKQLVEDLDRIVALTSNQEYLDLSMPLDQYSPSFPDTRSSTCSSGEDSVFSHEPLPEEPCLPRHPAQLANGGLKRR
Procedure, shortened: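 Emission ratio 520 nm/495 nm by TR-FRET after stopping reaction with 10 mM EDTA and 60 min incubation at 22°C. Inhibition normalized between no-enzyme (min) and DMSO (max) controls, then fitted to a four-parameter curve (Top, Bottom, HillSlope).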

FGFR2 = target: T4, FGFR2 (Homo sapiens, UniProt P21802); assay: FGFR2 kinase activity inhibition assay (LanthaScreen TR-FRET)
T4 construct: FGFR2's cytoplasmic domain [399-821 (terminal) amino acids]; purchased Carna 08-134
T4 sequence (P21802 399-821): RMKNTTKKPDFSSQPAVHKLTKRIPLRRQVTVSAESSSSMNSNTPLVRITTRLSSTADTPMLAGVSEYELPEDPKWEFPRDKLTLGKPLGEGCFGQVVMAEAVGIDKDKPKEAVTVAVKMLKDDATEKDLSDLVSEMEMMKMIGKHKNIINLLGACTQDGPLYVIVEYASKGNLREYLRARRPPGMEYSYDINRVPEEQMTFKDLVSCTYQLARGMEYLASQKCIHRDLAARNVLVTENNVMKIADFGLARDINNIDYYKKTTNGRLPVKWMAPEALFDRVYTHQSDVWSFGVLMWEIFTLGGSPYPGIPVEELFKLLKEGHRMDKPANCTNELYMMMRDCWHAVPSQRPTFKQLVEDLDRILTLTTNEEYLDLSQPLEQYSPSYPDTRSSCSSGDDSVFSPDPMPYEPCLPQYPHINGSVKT
Description: as §1, §2, §3
as §4, with “Table 1 reports the kinase activity inhibition results and selectivity towards FGFR3 of each compound.” left out

[1] = FGFR3 kinase, TR-FRET, read-out: IC50 (nM) FGFR3
[2] = FGFR1 kinase, TR-FRET, read-out: IC50 (nM) FGFR1
[3] = FGFR2 kinase, TR-FRET, read-out: IC50 (nM) FGFR2

Compound: Cc1cc(O[C@H](C)c2c(Cl)cncc2Cl)cc2c(-c3cnn(C)c3)n[nH]c12 [Example 2, (R)-5-(1-(3,5-dichloropyridin-4-yl)ethoxy)-7-methyl-3-(1-methyl-1H-pyrazol-4-yl)-1H-indazole]
- IC50 (FGFR3; [1]): 1 to 10 nM
- Selectivity (X) FGFR1/FGFR3 (FGFR3): B (B represents 20 ≤ multiple X<50)
- Selectivity (X) FGFR2/FGFR3 (FGFR3): A (A represents 1 ≤ multiple X<20)
- Selectivity (X) FGFR4/FGFR3 (FGFR3): B (B represents 20 ≤ multiple X<50)
- IC50 (FGFR4): > 100 nM
- IC50 (FGFR1; [2]): > 100 nM
- IC50 (FGFR2; [3]): 10 to 100 nM

Compound: C[C@@H](Oc1cc(F)c2[nH]nc(-c3cnn(C)c3)c2c1)c1c(Cl)cncc1Cl [Example 5, (R)-5-(1-(3,5-dichloropyridin-4-yl)ethoxy)-7-fluoro-3-(1-methyl-1H-pyrazol-4-yl)-1H-indazole]
- IC50 (FGFR3; [1]): < 1 nM
- Selectivity (X) FGFR1/FGFR3 (FGFR3): A (A represents 1 ≤ multiple X<20)
- Selectivity (X) FGFR2/FGFR3 (FGFR3): A (A represents 1 ≤ multiple X<20)
- Selectivity (X) FGFR4/FGFR3 (FGFR3): B (B represents 20 ≤ multiple X<50)
- IC50 (FGFR4): 1 to 10 nM
- IC50 (FGFR1; [2]): 1 to 10 nM
- IC50 (FGFR2; [3]): < 1 nM

Compound: C[C@@H](Oc1cc(C2CC2)c2[nH]nc(-c3cnn(C)c3)c2c1)c1c(Cl)cncc1Cl [Example 7, (R)-7-cyclopropyl-5-(1-(3,5-dichloropyridin-4-yl)ethoxy)-3-(1-methyl-1H-pyrazol-4-yl)-1H-indazole]
- IC50 (FGFR3; [1]): 1 to 10 nM
- Selectivity (X) FGFR1/FGFR3 (FGFR3): B (B represents 20 ≤ multiple X<50)
- Selectivity (X) FGFR2/FGFR3 (FGFR3): A (A represents 1 ≤ multiple X<20)
- Selectivity (X) FGFR4/FGFR3 (FGFR3): B (B represents 20 ≤ multiple X<50)
- IC50 (FGFR4): > 100 nM
- IC50 (FGFR1; [2]): > 100 nM
- IC50 (FGFR2; [3]): 10 to 100 nM

Compound: C[C@@H](Oc1cc(F)c2[nH]nc(-c3cnn(CCS(C)(=O)=O)c3)c2c1)c1c(Cl)cncc1Cl [Example 11, (R)-5-(1-(3,5-dichloropyridin-4-yl)ethoxy)-7-fluoro-3-(1-(2-(methylsulfonyl)ethyl)-1H-pyrazol-4-yl)-1H-indazole]
- IC50 (FGFR3; [1]): 1 to 10 nM
- Selectivity (X) FGFR1/FGFR3 (FGFR3): A (A represents 1 ≤ multiple X<20)
- Selectivity (X) FGFR2/FGFR3 (FGFR3): A (A represents 1 ≤ multiple X<20)
- Selectivity (X) FGFR4/FGFR3 (FGFR3): A (A represents 1 ≤ multiple X<20)
- IC50 (FGFR4): 10 to 100 nM
- IC50 (FGFR1; [2]): 10 to 100 nM
- IC50 (FGFR2; [3]): 1 to 10 nM

Compound: C[C@@H](Oc1ccc2[nH]nc(-c3cnn(CCO)c3)c2n1)c1c(Cl)cncc1Cl [Example 39, (R)-2-(4-(5-(1-(3,5-dichloropyridin-4-yl)ethoxy)-1H-pyrazolo[4,3-b]pyridin-3-yl)-1H-pyrazol-1-yl)ethan-1-ol]
- IC50 (FGFR3; [1]): 1 to 10 nM
- Selectivity (X) FGFR1/FGFR3 (FGFR3): A (A represents 1 ≤ multiple X<20)
- Selectivity (X) FGFR2/FGFR3 (FGFR3): A (A represents 1 ≤ multiple X<20)
- IC50 (FGFR1; [2]): 10 to 100 nM
- IC50 (FGFR2; [3]): 1 to 10 nM

Compound: C[C@@H](Oc1ccc2[nH]nc(-c3cnn(CC(F)F)c3)c2n1)c1c(Cl)cncc1Cl [Example 41, (R)-5-(1-(3,5-dichloropyridin-4-yl)ethoxy)-3-(1-(2,2-difluoroethyl)-1H-pyrazol-4-yl)-1H-pyrazolo[4,3-b]pyridine]
- IC50 (FGFR3; [1]): 10 to 100 nM
- Selectivity (X) FGFR1/FGFR3 (FGFR3): A (A represents 1 ≤ multiple X<20)
- Selectivity (X) FGFR2/FGFR3 (FGFR3): A (A represents 1 ≤ multiple X<20)
- IC50 (FGFR1; [2]): 10 to 100 nM
- IC50 (FGFR2; [3]): 10 to 100 nM

Compound: C[C@@H](Oc1ccc2[nH]nc(-c3cnn(C4CC4)c3)c2n1)c1c(Cl)cncc1Cl [Example 48, (R)-3-(1-cyclopropyl-1H-pyrazol-4-yl)-5-(1-(3,5-dichloropyridin-4-yl)ethoxy)-1H-pyrazino[4,3-b]pyridine]
- IC50 (FGFR3; [1]): 1 to 10 nM
- Selectivity (X) FGFR1/FGFR3 (FGFR3): A (A represents 1 ≤ multiple X<20)
- Selectivity (X) FGFR2/FGFR3 (FGFR3): A (A represents 1 ≤ multiple X<20)
- IC50 (FGFR1; [2]): 10 to 100 nM
- IC50 (FGFR2; [3]): 10 to 100 nM

Compound: CNCCNC(=O)c1ccc2[nH]nc(-c3cnn(C)c3)c2c1 [Example 65, 3-(1-methyl-1H-pyrazol-4-yl)-N-(2-(methylamino)ethyl)-1H-indazole-5-carboxamide]
- IC50 (FGFR3; [1]): 10 to 100 nM
- Selectivity (X) FGFR1/FGFR3 (FGFR3): B (B represents 20 ≤ multiple X<50)
- Selectivity (X) FGFR2/FGFR3 (FGFR3): C (C represents 50 ≤ multiple X<100)
- IC50 (FGFR1; [2]): > 100 nM
- IC50 (FGFR2; [3]): > 100 nM

Compound: CC(Oc1ccc2[nH]nc(-c3cnn(C)c3)c2c1)c1cc(C#N)cc2ncccc12 (centres unmarked) [Example 159, 5-(1-((3-(1-methyl-1H-pyrazol-4-yl)-1H-indazol-5-yl)oxy)ethyl)qu inoline-7-carbonitrile]
- IC50 (FGFR3; [1]): 1 to 10 nM
- Selectivity (X) FGFR1/FGFR3 (FGFR3): B (B represents 20 ≤ multiple X<50)
- Selectivity (X) FGFR2/FGFR3 (FGFR3): A (A represents 1 ≤ multiple X<20)
- IC50 (FGFR1; [2]): > 100 nM
- IC50 (FGFR2; [3]): 10 to 100 nM

Compound: CC(Oc1ccc2[nH]nc(-c3cnn(C4CCN(C#N)CC4)c3)c2c1)c1cccc2nccnc12 (centres unmarked) [Example 162, 4-(4-(5-(1-(quinoxalin-5-yl)ethoxy)-1H-indazol-3-yl)-1H-pyrazol-1-yl)piperidine-1-carbonitrile]
- IC50 (FGFR3; [1]): 1 to 10 nM
- Selectivity (X) FGFR1/FGFR3 (FGFR3): A (A represents 1 ≤ multiple X<20)
- Selectivity (X) FGFR2/FGFR3 (FGFR3): A (A represents 1 ≤ multiple X<20)
- IC50 (FGFR1; [2]): 10 to 100 nM
- IC50 (FGFR2; [3]): 10 to 100 nM

Compound: CC(Oc1ccc2[nH]nc(-c3cnn(C4CCN(S(C)(=O)=O)CC4)c3)c2c1)c1cccc2nccnc12 (centres unmarked) [Example 163, 5-(1-((3-(1-(1-(methylsulfonyl)piperidin-4-yl)-1H-pyrazol-4-yl)-1-indazol-5-yl)oxy)ethyl)quinoxaline]
- IC50 (FGFR3): 1 to 10 nM
- Selectivity (X) FGFR1/FGFR3 (FGFR3): A (A represents 1 ≤ multiple X<20)
- Selectivity (X) FGFR2/FGFR3 (FGFR3): A (A represents 1 ≤ multiple X<20)
- IC50 (FGFR1): 10 to 100 nM
- IC50 (FGFR2): 10 to 100 nM

Compound: CC(Oc1ccc2[nH]nc(-c3cnn(CCCS(C)(=O)=O)c3)c2c1)c1cccc2nccnc12 (centres unmarked) [Example 181, 5-(1-((3-(1-(3-(methylsulfonyl)propyl)-1H-pyrazol-4-yl)-1H-indazol-5-yl)oxy)ethyl)quinoxaline]
- IC50 (FGFR3; [1]): < 1 nM
- Selectivity (X) FGFR1/FGFR3 (FGFR3): A (A represents 1 ≤ multiple X<20)
- Selectivity (X) FGFR4/FGFR3 (FGFR3): A (A represents 1 ≤ multiple X<20)
- IC50 (FGFR4): 10 to 100 nM
- IC50 (FGFR1; [2]): 10 to 100 nM

Compound: CNC1CC(n2cc(-c3n[nH]c4ccc(OC(C)c5cccc6nccnc56)cc34)cn2)C1 (centres unmarked) [Example 182, N-methyl-3-(4-(5-(1-(quinoxalin-5-yl)ethoxy)-1H-indazol-3-yl)-1H-pyrazol-1-yl)c yclobutan-1-amine]
- IC50 (FGFR3; [1]): 1 to 10 nM
- Selectivity (X) FGFR1/FGFR3 (FGFR3): A (A represents 1 ≤ multiple X<20)
- Selectivity (X) FGFR4/FGFR3 (FGFR3): A (A represents 1 ≤ multiple X<20)
- IC50 (FGFR4): 10 to 100 nM
- IC50 (FGFR1; [2]): 10 to 100 nM

Compound: CC(Oc1ccc2[nH]nc(-c3cnn(C)c3)c2c1)c1cccn2ncc(F)c12 (centres unmarked) [Example 184, 5-(1-(3-fluoropyrazolo[1,5-a]pyridin-4-yl)ethoxy)-3-(1-methyl-1H-pyrazol-4-yl)-1H-indazole]
- IC50 (FGFR3; [1]): < 1 nM
- Selectivity (X) FGFR1/FGFR3 (FGFR3): B (B represents 20 ≤ multiple X<50)
- Selectivity (X) FGFR4/FGFR3 (FGFR3): A (A represents 1 ≤ multiple X<20)
- IC50 (FGFR4): 1 to 10 nM
- IC50 (FGFR1; [2]): 10 to 100 nM

Compound: CC(Oc1ccc2[nH]nc(-c3cnn(CCCS(C)(=N)=O)c3)c2c1)c1cc(F)cc2nccnc12 (centres unmarked) [Example 185]
- IC50 (FGFR3; [1]): < 1 nM
- Selectivity (X) FGFR1/FGFR3 (FGFR3): B (B represents 20 ≤ multiple X<50)
- Selectivity (X) FGFR4/FGFR3 (FGFR3): B (B represents 20 ≤ multiple X<50)
- IC50 (FGFR4): 10 to 100 nM
- IC50 (FGFR1; [2]): 10 to 100 nM
